According to patent US10160755B2 (Plexxikon Inc., priority 2015, dated 2018):

Experiments:
[1] = molecular target: T1, FLT3-ITD (Homo sapiens, UniProt P36888); assay: FLT3-ITD biochemical kinase assay (AlphaScreen)
T1 construct: FLT3-ITD; Invitrogen #PV6190
T1 sequence (P36888 1-993): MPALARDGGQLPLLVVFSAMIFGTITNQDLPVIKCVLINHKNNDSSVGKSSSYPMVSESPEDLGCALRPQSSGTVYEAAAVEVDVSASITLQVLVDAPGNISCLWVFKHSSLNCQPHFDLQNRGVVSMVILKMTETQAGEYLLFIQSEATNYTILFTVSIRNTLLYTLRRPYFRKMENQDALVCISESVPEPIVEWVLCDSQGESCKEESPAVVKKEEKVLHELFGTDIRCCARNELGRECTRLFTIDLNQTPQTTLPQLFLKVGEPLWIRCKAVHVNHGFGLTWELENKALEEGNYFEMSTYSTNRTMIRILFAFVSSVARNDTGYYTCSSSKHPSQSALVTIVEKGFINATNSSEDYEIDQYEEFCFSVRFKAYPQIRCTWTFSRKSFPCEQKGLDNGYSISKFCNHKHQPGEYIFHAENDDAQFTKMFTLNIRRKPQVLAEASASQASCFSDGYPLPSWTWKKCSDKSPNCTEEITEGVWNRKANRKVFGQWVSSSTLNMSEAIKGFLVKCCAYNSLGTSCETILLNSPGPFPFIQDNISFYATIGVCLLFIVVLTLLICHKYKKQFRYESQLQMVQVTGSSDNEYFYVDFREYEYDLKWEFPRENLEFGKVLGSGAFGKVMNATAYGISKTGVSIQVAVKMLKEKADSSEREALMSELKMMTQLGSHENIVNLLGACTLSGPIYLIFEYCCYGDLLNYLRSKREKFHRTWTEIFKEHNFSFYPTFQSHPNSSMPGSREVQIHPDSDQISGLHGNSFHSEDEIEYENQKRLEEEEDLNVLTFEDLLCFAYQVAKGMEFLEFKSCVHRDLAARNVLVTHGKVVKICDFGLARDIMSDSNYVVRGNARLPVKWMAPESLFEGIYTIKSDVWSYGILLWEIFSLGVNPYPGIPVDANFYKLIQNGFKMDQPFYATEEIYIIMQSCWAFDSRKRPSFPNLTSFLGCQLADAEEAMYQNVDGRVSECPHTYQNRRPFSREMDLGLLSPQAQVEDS
Procedure, shortened: (§1)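 Recombinant enzyme phosphorylated biotin-poly(Glu4-Tyr) peptide (30 nM final); ATP final 10 μM for FLT3-D835Y, 100 μM for FLT3-ITD. AlphaScreen read-out: streptavidin donor and anti-phosphotyrosine (PY20) acceptor beads, 20 and 60 min at room temperature; inhibition seen as drop in 580 nm proximity signal; IC50 determined.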

[2] = molecular target: T2, FLT3-D835Y (Homo sapiens, UniProt P36888, D835Y); assay: FLT3-D835Y biochemical kinase assay (AlphaScreen)
T2 construct: purchased Invitrogen PV3967
T2 sequence (P36888 27-993 D835Y): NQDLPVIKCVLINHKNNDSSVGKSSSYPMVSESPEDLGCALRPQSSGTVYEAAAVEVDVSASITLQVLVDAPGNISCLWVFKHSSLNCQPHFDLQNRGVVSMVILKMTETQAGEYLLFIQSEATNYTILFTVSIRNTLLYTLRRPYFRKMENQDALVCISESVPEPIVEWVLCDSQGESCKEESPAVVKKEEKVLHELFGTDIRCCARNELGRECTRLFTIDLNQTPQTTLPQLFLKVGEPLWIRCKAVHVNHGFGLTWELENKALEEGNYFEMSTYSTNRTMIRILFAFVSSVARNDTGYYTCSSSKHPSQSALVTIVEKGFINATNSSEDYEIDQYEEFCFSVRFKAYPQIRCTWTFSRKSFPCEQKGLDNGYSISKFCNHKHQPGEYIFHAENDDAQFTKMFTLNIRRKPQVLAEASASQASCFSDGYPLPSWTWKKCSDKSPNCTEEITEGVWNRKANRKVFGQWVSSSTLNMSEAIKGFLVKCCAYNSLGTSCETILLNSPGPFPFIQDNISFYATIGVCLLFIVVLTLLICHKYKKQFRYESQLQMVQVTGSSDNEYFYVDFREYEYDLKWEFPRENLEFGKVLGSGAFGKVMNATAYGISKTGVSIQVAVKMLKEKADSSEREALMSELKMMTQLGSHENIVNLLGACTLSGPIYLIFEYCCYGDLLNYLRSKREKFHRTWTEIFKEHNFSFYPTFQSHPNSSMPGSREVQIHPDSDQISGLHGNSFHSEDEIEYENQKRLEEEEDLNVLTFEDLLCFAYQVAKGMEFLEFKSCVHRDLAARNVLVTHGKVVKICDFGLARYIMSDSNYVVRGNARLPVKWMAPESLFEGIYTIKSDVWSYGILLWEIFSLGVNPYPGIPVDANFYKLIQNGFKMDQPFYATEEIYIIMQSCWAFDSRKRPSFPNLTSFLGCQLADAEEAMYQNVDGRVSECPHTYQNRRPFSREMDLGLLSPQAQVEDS
Procedure, shortened: as §1

Row | IC50 [1] [µM] | IC50 [2] [µM] | SMILES
1 | 0.0001 to 1 | 0.0001 to 1 | c1cc(-c2cnc3[nH]cc(-c4ccc5ncn(C6CCCNC6)c5c4)c3n2)cc(N2CCCCC2)c1 (stereo not shown) [P-337, 7-[3-(3-piperidyl)benzimidazol-5-yl]-2-[3-(1-piperidyl)phenyl]-5H-pyrrolo[2,3-b]pyrazine]
2 | 0.0001 to 1 | 0.0001 to 1 | CC(C)(C)n1cnc2ccc(-c3c[nH]c4ncc(-c5cnc(N6CCC(F)(F)CC6)nc5)nc34)cc21 [P-357, 7-(3-tert-butylbenzimidazol-5-yl)-2-[2-(4,4-difluoro-1-piperidyl)pyrimidin-5-yl]-5H-pyrrolo[2,3-b]pyrazine]
3 | 0.0001 to 1 | 0.0001 to 1 | Cn1cnc2ccc(-c3c[nH]c4nnc(Cl)cc34)cc21 [P-313, 3-chloro-5-(3-methylbenzimidazol-5-yl)-7H-pyrrolo[2,3-c]pyridazine]
4 | 0.0001 to 1 | 0.0001 to 1 | CCN1CCN(c2ccc(-c3cnc4[nH]cc(-c5ccc6ncn(C7CCCNC7)c6c5)c4n3)cc2)CC1 (stereo not shown) [P-359, 2-[4-(4-ethylpiperazin-1-yl)phenyl]-7-[3-(3-piperidyl)benzimidazol-5-yl]-5H-pyrrolo[2,3-b]pyrazine]
5 | 0.0001 to 1 | 0.0001 to 1 | CC(C)(C)n1cnc2ccc(-c3c[nH]c4ncc(-c5cnc(O)nc5)nc34)cc21 [P-363, 5-[7-(3-tert-butylbenzimidazol-5-yl)-5H-pyrrolo[2,3-b]pyrazin-2-yl]pyrimidin-2-ol]
6 | 0.0001 to 1 | 0.0001 to 1 | c1cc(-c2cnc3[nH]cc(-c4ccc5ncn(C6CCCNC6)c5c4)c3c2)cc(N2CCOCC2)c1 (stereo not shown) [P-317, 4-[3-[3-[3-(3-piperidyl)benzimidazol-5-yl]-1H-pyrrolo[2,3-b]pyridin-5-yl]phenyl]morpholine]
7 | 0.0001 to 1 | 0.0001 to 1 | c1nc(N2CCOCC2)ncc1-c1cnc2[nH]cc(-c3ccc4ncn(C5CCCNC5)c4c3)c2c1 (stereo not shown) [P-277, 4-[5-[3-[3-(3-piperidyl)benzimidazol-5-yl]-1H-pyrrolo[2,3-b]pyridin-5-yl]pyrimidin-2-yl]morpholine]
8 | 0.0001 to 1 | 0.0001 to 1 | CC(C)(C)n1cnc2ccc(-c3c[nH]c4ncc(-c5cccc(N6CCCCC6)c5)nc34)cc21 [P-336, 7-(3-tert-butylbenzimidazol-5-yl)-2-[3-(1-piperidyl)phenyl]-5H-pyrrolo[2,3-b]pyrazine]
9 | 0.0001 to 1 | 0.0001 to 1 | CCN1CCN(c2cc(-c3cnc4[nH]cc(-c5ccc6ncn(C7CCCNC7)c6c5)c4n3)ccn2)CC1 (stereo not shown) [P-327, 2-[2-(4-ethylpiperazin-1-yl)-4-pyridyl]-7-[3-(3-piperidyl)benzimidazol-5-yl]-5H-pyrrolo[2,3-b]pyrazine]
10 | 0.0001 to 1 | 0.0001 to 1 | FC(F)n1cc(-c2cnc3[nH]cc(-c4ccc5ncn(C6CCCNC6)c5c4)c3c2)cn1 (stereo not shown) [P-274, 5-[1-(difluoromethyl)pyrazol-4-yl]-3-[3-(3-piperidyl)benzimidazol-5-yl]-1H-pyrrolo[2,3-b]pyridine]
11 | 0.0001 to 1 | 0.0001 to 1 | CN1CCN(c2cccc(-c3cnc4[nH]cc(-c5ccc6ncn(C7CCCNC7)c6c5)c4n3)c2)CC1 (stereo not shown) [P-332, 2-[3-(4-methylpiperazin-1-yl)phenyl]-7-[3-(3-piperidyl)benzimidazol-5-yl]-5H-pyrrolo[2,3-b]pyrazine]
12 | 0.0001 to 1 | 0.0001 to 1 | CC(C)(C)n1cnc2ccc(-c3c[nH]c4ncc(-c5ccc(C#N)nc5)cc34)cc21 [P-290, 5-[3-(3-tert-butylbenzimidazol-5-yl)-1H-pyrrolo[2,3-b]pyridin-5-yl]pyridine-2-carbonitrile]
13 | 0.0001 to 1 | 0.0001 to 1 | O=S1(=O)CCCN1c1ccc(-c2cnc3[nH]cc(-c4ccc5ncn(C6CCCNC6)c5c4)c3c2)cc1 (stereo not shown) [P-319, 2-[4-[3-[3-(3-piperidyl)benzimidazol-5-yl]-1H-pyrrolo[2,3-b]pyridin-5-yl]phenyl]-1,2-thiazolidine 1,1-dioxide]
14 | 0.0001 to 1 | 0.0001 to 1 | CC(C)(O)c1ncc(-c2cnc3[nH]cc(-c4ccc5ncn(C(C)(C)C)c5c4)c3n2)cn1 [P-380, 2-[5-[7-(3-tert-butylbenzimidazol-5-yl)-5H-pyrrolo[2,3-b]pyrazin-2-yl]pyrimidin-2-yl]propan-2-ol]
